{"source": "patent US20260283953A1", "about": "“FORMULATIONS OF PHOSPHOLIPID CARRIER COMPLEXES” (priority 2024, published 2026)", "origin": "cited, not measured here", "key": {"[1]": {"settings": "in vivo"}, "[2]": {"settings": "for testosterone levels: oral 60 mg dose"}, "[3]": {"settings": "natural testosterone"}}, "note": "Like-named read-outs stand apart in the source and are kept apart here.", "data": [{"smiles": "O=C(/C=C/C=C/c1ccc2c(c1)OCO2)N1CCCCC1", "note": "[Piperine, (2E,4E)-5-(2H-1,3-Benzodioxol-5-yl)-1-(piperidin-1-yl)penta-2,4-dien-1-one]", "values": [{"measurement": "solubility in water", "value": "dissolves poorly in water"}]}, {"smiles": "COc1cc(/C=C/C(=O)CC(=O)/C=C/c2ccc(O)c(OC)c2)ccc1O", "note": "[curcumin]", "values": [{"measurement": "bioavailability", "setting": "[1]", "value": "low bioavailability"}]}, {"smiles": "C[C@]12CC[C@H]3[C@@H](CCC4=CC(=O)CC[C@@]43C)[C@@H]1CC[C@@H]2O", "note": "[testosterone, 17β-Hydroxyandrost-4-en-3-one]", "values": [{"measurement": "absorption and metabolism with oral delivery", "setting": "[2]; first pass through the intestines and liver", "value": "well-absorbed but extensively metabolized"}, {"measurement": "inactivation after oral delivery", "setting": "[2]; men, doses of less than 200 mg", "value": "rapidly and completely inactivated"}, {"measurement": "testosterone levels", "setting": "[2]; men", "value": "no effect"}, {"measurement": "testosterone levels", "setting": "[2]; men with liver cirrhosis", "value": "High levels"}, {"measurement": "testosterone levels", "setting": "[2]; prepubertal boys and women", "value": "measurably increase"}, {"measurement": "circulating testosterone levels", "setting": "[2]; oral, large doses such as 200 mg", "value": "significant increases"}, {"measurement": "oral bioavailability", "setting": "[2]; young women, single 25 mg dose", "value": "3.6±2.5", "unit": "%"}, {"measurement": "half-life", "setting": "[3]", "value": "under 1 hour"}]}]}
